Positions of bridges follow the written chain, without caps; N, C: chain ends. Residues, ends and D or L forms follow the SMILES beside them.
Tests used:
[1] = tested on: mild to moderate atopic dermatitis; assay type: in vivo, human
Description: 26 subjects having mild to moderate atopic dermatitis and about 3-70% treatable body surface area (BSA) were enrolled in the study. […] Dosing was targeted at 0.62 g/kg/day of the formulation or 6.82 mg/kg/day of Compound 1. Based on an average body weight of 60 kg, and average BSA of 1.62 m2, a recommended starting dose of 2.5 g of a formulation (for example, Formulation 1 or 4; Formulations 2, 3, 5, and 6 may be dosed higher due to the lower concentration of Compound 1) is proposed as a starting point. Severity of atopic dermatitis (vIGA-AD score), treatable BSA, and the following 11 signs and symptoms were assessed: dryness, erythema, burning/stinging, erosion/ulceration, edema/swelling, itching, pain treated area, crusting, vesiculation, flaking/scaling, and bleeding.

[2] = 7-day repeat dose tolerance dermal study in Gottingen Mini-Pigs (non-GLP); assay type: in vivo
Excerpt: The purpose of this study was to evaluate the dermal dose tolerance at the maximum feasible dose (concentration and application rate) of Compound 1 in Formulation 1, Formulation 2, or Formulation 3 of Table 2, including placebo (F1, F2, or F3 without Compound 1) when applied by topical dermal application to Gottingen Mini-Pigs twice daily for seven days.
Three experimentally naive male Gottingen Mini-Pigs, 4-5 months old and weighing 10.6-13.8 kilograms at the outset of the study had four dose sites (100 cm^2 per site) numbered 1, 2, 3, and 4. The dose sites were not rotated.
Animals were dosed with all formulations twice daily (two doses per site per day; 6 hours+/−30 minutes between the first and second dose for 7 days). Mortality/morbidity was performed twice daily and once on the day of scheduled euthanasia. On Days 1-7 animals were observed prior to dosing and at 1-2 hours post-dose. A final observation was recorded on Day 8 prior to scheduled euthanasia. Body weights were recorded on Days 1 and 7. Food consumption was determined daily. Blood for toxicokinetic evaluation was collected on Days 1 and 7 at 0.5, 1, 2, 4, 6, 8 and 24 hours post-dose. […] Animals were sacrificed on Day 8 and a gross necropsy was performed. The dosing area (skin) was collected and preserved.

[3] = tested on: Phorbol Myristoyl Acetate (PMA)-induced skin inflammation; assay type: in vivo; details: mouse
Excerpt: The anti-inflammatory efficacy of Compound 1 on a Phorbol Myristoyl Acetate (PMA)-induced skin inflammatory mouse model (irritant contact dermatitis) is shown following topical application of a formulation including Compound 1 herein.

[4] = PK/biodistribution following single topical dose: whole blood and plasma radioactivity; assay type: in vivo, male albino rats; parameters: Non-plasma compartment: unit not given beside the values; details: rat; for Concentration of radioactivity in recovered white blood cells: reverse wash of filters
Description: Whole blood and plasma radioactivity analysis, quantitative whole-body autoradiography (QWBA), and micro-autoradiography (mARG) studies are performed following a single topical dose administration to male rats. Formulation 1, Formulation 2, or Formulation 3, where Compound 1 is 3H-Compound 1, are applied in a single topical dose at a target dose of 5 mg/kg to six male albino rats.
An additional three male albino rats received a single topical appropriate amount of CETAPHIL (R) applied to the dose site approximately 1 hour prior to application of ^3H-Compound 1 in a single topical dose at a target dose of 5 mg/kg. An individual rat receiving the emollient pre-treatment was used for a single time-point of 2 hours, 8 hours, and 48 hours.

[5] = at EOT or at 2-week follow-up visit
[6] = CETAPHIL 1 hr prior to single topical 5 mg/kg, 48 h, dosing device removed by rat, potential oral administration by grooming
[7] = CETAPHIL 1 hr prior to single topical 5 mg/kg, 48 h, dosing device removed, potential oral administration
[8] = CETAPHIL emollient 1 hr prior to single topical 5 mg/kg, 2 h
[9] = CETAPHIL emollient 1 hr prior to single topical 5 mg/kg, 8 h
[10] = single topical 5 mg/kg, without CETAPHIL, 1 h
[11] = single topical 5 mg/kg, without CETAPHIL, 1 h post-dose
[12] = single topical 5 mg/kg, without CETAPHIL, 2 h
[13] = single topical 5 mg/kg, without CETAPHIL, 2 h post-dose
[14] = single topical 5 mg/kg, without CETAPHIL, 4 h
[15] = single topical 5 mg/kg, without CETAPHIL, 4 h post-dose
[16] = single topical 5 mg/kg, without CETAPHIL, 8 h
[17] = single topical 5 mg/kg, without CETAPHIL, 8 h post-dose
[18] = single topical 5 mg/kg, without CETAPHIL, 24 h
[19] = single topical 5 mg/kg, without CETAPHIL, 24 h post-dose
[20] = single topical 5 mg/kg, without CETAPHIL, 48 h
[21] = single topical 5 mg/kg, without CETAPHIL, 48 h post-dose

In the case of `CSCC[C@@H]1NC(=O)[C@H](CC(C)C)NC(=O)[C@H](CCCCN)NC(=O)[C@H](CCC(N)=O)NC(=O)[C@H](CCCNC(=N)N)NC(=O)[C@H](CCCCN)NC(=O)[C@H](CCCNC(=N)N)NC(=O)[C@H](CCC(N)=O)NC(=O)[C@H](C(C)C)NC(=O)[C@@H](NC(=O)[C@@H]2CCCN2C(=O)[C@H](C)NC(=O)[C@H](CC(C)C)NC(=O)[C@H](CC(C)C)NC(=O)[C@H](C)NC(=O)[C@H](CC(C)C)NC(=O)[C@H](CC(C)C)NC(=O)[C@@H](NC(=O)[C@H](C)NC(=O)[C@@H]2CCCN2C(=O)[C@H](CC(C)C)NC(=O)[C@H](CC(C)C)NC(=O)[C@H](C)NC(=O)[C@@H](NC(=O)[C@H](C)NC(=O)[C@H](C)N)C(C)C)C(C)C)CSSC[C@@H](C(=O)O)NC(=O)[C@@H]2CCCN2C1=O` [Compound 1] (H-AAVALLPAVLLALLAPCVQRKRQKLMPC-OH; disulfide 17-28), the “11 signs and symptoms of AD scored from patient diaries” value ([1]; 1.1% as Formulation 4, BID for 7 days) is reported as “net negative score”, the “subjects whose vIGA-AD score worsened 2 units” value ([1]; at 2-week follow up) is reported as 0 subjects and the “subjects whose EOT vIGA-AD score worsened 1 unit” value ([1]; at 2-week follow up (3 subjects)) is reported as 13%. The “subjects with improvement in vIGA-AD scores of 2 units” value ([1]; at 2-week follow up (10 subjects)) was 44%, the “subjects with 0-clear or 1-almost clear skin” value ([1]; at 2-week post treatment) was 61% and the “subjects with improved vIGA-AD scores of 2 units” value ([1]; at EOT (6 subjects)) was 26%. The “subjects with 0-clear or 1-almost clear vIGA-AD scores” value ([1]; at EOT (BID for 7 days)) was 57%, the “patients responding (reduction in treatable BSA or decrease in vIGA-AD severity score, or both)” value [1, 5] was 24 of 26 and the “reduction in size of treatable BSA in responders” value [1, 5] was 20-100%. For the same molecule, the “adverse events (AEs)” value ([1]; in vivo) was “no adverse events”, the tolerability ([1]; in vivo) was “well tolerated” and the dermal tolerance ([2]; male mini-pigs, 0, 0.11, 0.33, 1.1% w/w applied topically twice daily for 7 consecutive days) was “tolerated”. For the same molecule, the “no-observed-adverse-effect level (NOAEL)” value ([2]; male mini-pigs, highest dose tested: 0.75 grams of formulation applied twice daily for 7 days) was 1.1 % w/w, the “early deaths (mortality)” value ([2]; male mini-pigs, topical 0.11, 0.33, 1.1% w/w (F3, F2, F1), 0.75 g per site twice daily for 7 days) was “no early deaths” and the “clinical signs or dermal effects” value ([2]; male mini-pigs, topical 0.11, 0.33, 1.1% w/w, twice daily for 7 days) was “no clinical signs or dermal effects noted”. The dermal irritation ([2]; minipig, in vivo) was “no signs of dermal irritation”, the “general signs of toxicity” value ([2]; minipig, in vivo) was “no general signs of toxicity” and the “swelling and cellular infiltration in ear punch biopsies induced by PMA” value ([3]; 8 h post-challenge) was “reduced”. For the same molecule, the “skin wound healing and hair re-growth after repeated surgical trauma” value ([3]; in vivo) was “does not impede”, the “inflammatory cell infiltration in skin biopsies in response to PMA” value ([3]; topical formulation, dose-dependent treatment) was “reduced” and the “ear swelling (ear thickness of intact ears) induced by PMA” value ([3]; topical treatment) was “attenuated”.

For `CSCC[C@@H]1NC(=O)[C@H](CC(C)C)NC(=O)[C@H](CCCCN)NC(=O)[C@H](CCC(N)=O)NC(=O)[C@H](CCCNC(=N)N)NC(=O)[C@H](CCCCN)NC(=O)[C@H](CCCNC(=N)N)NC(=O)[C@H](CCC(N)=O)NC(=O)[C@H](C(C)C)NC(=O)[C@@H](NC(=O)[C@@H]2CCCN2C(=O)[C@H](C)NC(=O)[C@H](CC(C)C)NC(=O)[C@H](CC(C)C)NC(=O)[C@H](C)NC(=O)[C@H](CC(C)C)NC(=O)[C@H](CC(C)C)NC(=O)[C@@H](NC(=O)[C@H](C)NC(=O)[C@@H]2CCCN2C(=O)[C@H](CC(C)C)NC(=O)[C@H](CC(C)C)NC(=O)[C@H](C)NC(=O)[C@@H](NC(=O)[C@H](C)NC(=O)[C@H](C)N)C(C)C)C(C)C)CSSC[C@@H](C(=O)O)NC(=O)[C@@H]2CCCN2C1=O` [^3H-Compound 1] (H-AAVALLPAVLLALLAPCVQRKRQKLMPC-OH; disulfide 17-28), the “Cmax, total radioactivity” value ([4]; Plasma, single topical 5 mg/kg) was 14.53 ng/mL, the “Cmax, total radioactivity” value ([4]; Whole blood -WBC, single topical 5 mg/kg) was 11.68 ng/mL and the “Cmax, total radioactivity” value ([4]; Whole blood, single topical 5 mg/kg) was 2.282 ng/mL. It also gave a Blood [4, 6] of 1630 ng/mL, a Plasma [4, 6] of 2312 ng/mL and a Non-plasma compartment [4, 7] of 19.2. For the same molecule, the Partition coefficient [4, 7] was 80.8, the WBC depleted blood [4, 7] was 303.9 ng equivalents/mL and the Blood [4, 8] was 4.444 ng/mL. For the same molecule, the Non-plasma compartment [4, 8] was 26.5, the Partition coefficient [4, 8] was 73.5 and the Plasma [4, 8] was 5.443 ng/mL. It also gave a WBC depleted blood [4, 8] of 2.333 ng equivalents/mL, a Blood [4, 9] of 16.05 ng/mL and a Non-plasma compartment [4, 9] of 21.3. It also gave a Partition coefficient [4, 9] of 78.7, a Plasma [4, 9] of 21.04 ng/mL and a WBC depleted blood [4, 9] of 3.223 ng equivalents/mL. The “persistence in the blood” value ([4]; after a single topical administration) was greater than 48 h, the “time to penetrate the skin deep enough to reach blood vessels” value ([4]; cream formulation, single topical administration) was “less than one hour” and the “Concentration of radioactivity in recovered white blood cells” value ([4]; single topical 5 mg/kg, 1 h post-dose, may not represent total white blood cells) was “BLQ”. The “Concentration of radioactivity in recovered white blood cells” value ([4]; single topical 5 mg/kg, 2 h post-dose) was “BLQ”, the “Concentration of radioactivity in recovered white blood cells” value ([4]; single topical 5 mg/kg, 4 h post-dose) was “BLQ” and the “Concentration of radioactivity in recovered white blood cells” value ([4]; single topical 5 mg/kg, 8 h post-dose) was “BLQ”. The “Concentration of radioactivity in recovered white blood cells” value ([4]; single topical 5 mg/kg, 24 h post-dose) was “BLQ”, the “Concentration of radioactivity in recovered white blood cells” value ([4]; single topical 5 mg/kg, 48 h post-dose) was “BLQ” and the Non-plasma compartment [4, 10] was 43.1. For the same molecule, the Partition coefficient [4, 10] was 56.9, the “Concentration of radioactivity in WBC depleted blood” value [4, 11] was “BLQ” and the “Concentration of radioactivity in plasma” value [4, 11] was 1.764 ng equivalents/mL. For the same molecule, the “Concentration of radioactivity in whole blood” value (from here on “Concentration … in whole blood”) [4, 11] was 1.923 ng equivalents/mL, the Non-plasma compartment [4, 12] was 24.9 and the Partition coefficient [4, 12] was 75.1. For the same molecule, the “Concentration of radioactivity in WBC depleted blood” value [4, 13] was “BLQ”, the “Concentration of radioactivity in plasma” value [4, 13] was 4.818 ng equivalents/mL and the “Concentration … in whole blood” value [4, 13] was 3.850 ng equivalents/mL. The Non-plasma compartment [4, 14] was 34.0, the Partition coefficient [4, 14] was 66.0 and the “Concentration of radioactivity in WBC depleted blood” value [4, 15] was 0.735 ng equivalents/mL. For the same molecule, the “Concentration of radioactivity in plasma” value [4, 15] was 4.896 ng equivalents/mL, the “Concentration … in whole blood” value [4, 15] was 4.303 ng equivalents/mL and the Non-plasma compartment [4, 16] was 27.8. For the same molecule, the Partition coefficient [4, 16] was 72.2, the “Concentration of radioactivity in WBC depleted blood” value [4, 17] was 2.282 ng equivalents/mL and the “Concentration of radioactivity in plasma” value [4, 17] was 14.53 ng equivalents/mL. For the same molecule, the “Concentration … in whole blood” value [4, 17] was 11.68 ng equivalents/mL, the Non-plasma compartment [4, 18] was 30.4 and the Partition coefficient [4, 18] was 69.6. The “Concentration of radioactivity in WBC depleted blood” value [4, 19] was 1.166 ng equivalents/mL, the “Concentration of radioactivity in plasma” value [4, 19] was 6.709 ng equivalents/mL and the “Concentration … in whole blood” value [4, 19] was 5.593 ng equivalents/mL. For the same molecule, the Non-plasma compartment [4, 20] was 21.7, the Partition coefficient [4, 20] was 78.3 and the “Concentration of radioactivity in WBC depleted blood” value [4, 21] was 1.109 ng equivalents/mL. The “Concentration of radioactivity in plasma” value [4, 21] was 6.287 ng equivalents/mL, the “Concentration … in whole blood” value [4, 21] was 4.978 ng equivalents/mL and the “partitioning among blood components” value ([4]; single topical dose, WBCs versus RBCs and RBC/WBC-depleted plasma) was “partitions to the WBCs (white blood cells) of blood preferentially”.

— patent US20250302967A1, “PEPTIDE FORMULATIONS AND USES THEREOF” (Amytrx Therapeutics, Inc., priority 2022, published 2025)
